# According to patent publication US8378117B2 (priority 2005, dated 2013):
# What was measured:
# Male CD-1 mice [1] = assay: Oil of mustard induced colitis model; format: in vivo; details: Therapeutic Regimen, 5 mg/kg oral; 5 mg/kg
# Description: In the distal colon, the oil of mustard colitis model is characterized by a discontinuous pattern of mucosal epithelial damage, submucosal edema, infiltration of inflammatory cells (including macrophages, neutrophils and lymphocytes) into the mucosa and submucosa, increased wet weight of the colon, shrinkage of the colon length, diarrhea and apparent inflammation (see, Kimball E. S., Palmer J. M., D'Andrea M. R., Homby P. J. and Wade P. R., Acute colitis induction by oil of mustard results in later development of an IBS-like accelerated upper GI transit in mice, Am. J Physiol. Gastrointest. Liver Physiol., 2005, 288: G 1266-1273).
# Male CD-1 mice (Charles River Laboratories, Kingston, N.C.) (9-11 weeks old) and fresh oil of mustard (OM) (allyl isothiocyanate, 98% purity, Sigma-Aldrich St. Louis, Mo.) were used.
# The mice (9 per treatment group) were briefly anesthetized with ketamine/xylasine (Sigma, St. Louis, Mo.) and a solution of 0.5% OM in 30% ethanol (50 μL) was administered intracolonically (to a depth of 4 cm) via syringe (equipped with a ball-tipped 22 G needle).
# A test compound was orally administered one day prior to colitis induction for assessing a prophylactic regimen or one day post-induction for assessing a therapeutic regimen. A test compound was orally administered daily thereafter. Two days after OM administration, the last test compound dose was administered.
# Three days after OM administration, the animals were sacrificed. The colons were resected, examined for signs of inflammation, weighed after removing fecal contents and the length from the aboral end of the cecum to the anus was measured. The fecal contents were examined for signs of diarrhea. The distal colon between the 1st and the 4th centimeter was removed and placed in 10% neutral buffered formalin for histological analysis.
# The macroscopic observations of colon inflammation (a measure of colon damage), colon weight and length and stool consistency and appearance were assigned a score and used to evaluate colitis severity.
# The four observation scores for each colon were combined, whereby a combined score of 0 represents a normal colon and a combined score of 15 represents a maximally affected colon. Statistical analyses were performed in Graphpad Prism 4.0 using ANOVA.
# Histological analyses of tissues consisted of staining paraffin-embedded tissue sections with hematoxylin-eosin dye. The tissues were examined using light microscopy by an investigator who was blinded to the sample groups.
# The microscopic observations of epithelial damage, cellular infiltration and damage or alteration of smooth muscle architecture (a measure of muscle damage) were assigned a score and used to evaluate colitis severity.
# The scores for each colon were combined, whereby a combined score of 0 represents a normal colon and a combined score of 9 represents a maximally affected colon. Statistical analyses were performed in Graphpad Prism 4.0 using ANOVA.
# The Macroscopic Score and Microscopic Score results for each treatment group in the prophylactic and therapeutic regimens were each combined into a mean score and expressed as % inhibition of colitis (% Inh). Test (#) represents the number of experiments at each dose level.
# Male CD-1 mice [2] = assay: Postoperative inflammatory ileus, upper gastrointestinal transit (FITC-dextran, Geometric Center); format: in vivo; details: Surgical Manipulation, 24 hr post-laparotomy, mean ± SE, scale 1 to 15
# Description: Male CD-1 mice were anesthetized by inhaled isoflurane and prepared for surgery. The abdomen was shaved of hair and treated with antiseptic solution. The animal was then covered with a surgical drape, leaving the abdomen exposed. A mid-line laparotomy was performed, and the entire small intestine was exteriorized onto the sterile drape. Using two moistened, sterile, cotton-tipped applicators, the small intestine was then gently compressed along its length from the ligament of Treitz to the ileo-cecal junction. The small intestine was then returned to the abdominal cavity and the incision closed by two layers of sutures.
# Age-matched mice were randomly assigned to groups (6 animals per group) and injected intraperitoneally (i.p.) with “vehicle” (a mixture of 5% ethanol/5% Tween80/90% of 5% dextran in water w/v) containing various doses of a test compound 1 hr prior to laparotomy. The second group was injected intraperitoneally with vehicle. The third group was administered intragastrically (1 mg/kg) a mixture (1 mg/mL) of dexamethasone in 20% hydroxypropyl methyl dextran in water, once per day for two days prior to surgery and 5 hrs post-laparotomy. The fourth group received no intervention and served as naïve controls.
# Upper gastrointestinal transit was measured 24 hr post-laparotomy. Mice were fed a test meal consisting of 150 μL of FITC-dextran solution (5 mg/mL of 70,000 molecular weight dextran conjugated to fluorescein-isothiocyanate in 0.5% hydroxypropyl methylcellulose/deionized water) administered intragastrically by an 18 gauge feeding tube. Following oral administration of the FITC-dextran test meal, animals were returned to their home cages. Following a 45 min test period, mice were euthanized by isoflurane overdose and exsanguination. The entire gastrointestinal tract from the lower esophageal sphincter to the terminal colon was removed. The bowel segments were opened along the mesenteric border. The tissue and luminal contents of the stomach, 10 equal segments of small intestine, the cecum, and 3 equal segments of colon were placed in individual Eppendorf tubes containing 1 ml of PBS. The tissue was vigorously mixed on a tabletop vortex, and solid materials were pelletized by centrifugation. Aliquots of the cleared supernatant were read in duplicate on a 96-well fluorescence plate reader to quantify the magnitude of the fluorescent signal in each segment of bowel.
# These values were used to calculate the Geometric Center (REF), which is defined as the weighted average distribution of the fluorescent signal along the gastrointestinal tract: GC=Σ(% of total fluorescent signal per segment×segment number)/100,
# Higher GC values represent faster rates of transit on scale of 1 to 15.
# Surgical manipulation of the small bowel leads to a significant delay in gastrointestinal transit, going from a Geometric Center of 8.4 in normal mice to 3.3 in vehicle treated animals.
SMILES,"% Inh (Macro), % inhibition of colitis, macroscopic score (Male CD-1 mice [1]) [%]",Geometric Center (upper gastrointestinal transit) (Male CD-1 mice [2]; dose 10 mg/kg),Geometric Center (upper gastrointestinal transit) (Male CD-1 mice [2]; dose 30 mg/kg),Geometric Center (upper gastrointestinal transit) (Male CD-1 mice [2]; dose 1 mg/kg),Geometric Center (upper gastrointestinal transit) (Male CD-1 mice [2]; dose 3 mg/kg)
"O=C(N[C@H](CO)c1ccccc1)c1n[nH]c2c1CCCCC2Cc1cccc(Cl)c1 (single isomer, unassigned) [Cpd 230, (8R*)-8-(3-chloro-benzyl)-1,4,5,6,7,8-hexahydro-cycloheptapyrazole-3-carboxylic acid [(1S)-2-hydroxy-1-phenyl-ethyl]-amide]",25.9 ± 24.7,,,,
"O=C(N[C@H](CO)c1ccccc1)c1n[nH]c2c1CCCCC2Cc1cccc(Cl)c1 (single isomer, unassigned) [Cpd 231, (8S*)-8-(3-chloro-benzyl)-1,4,5,6,7,8-hexahydro-cycloheptapyrazole-3-carboxylic acid [(1S)-2-hydroxy-1-phenyl-ethyl]-amide]",−19 ± 20.7,,,,
"C[C@H](NS(=O)(=O)/C=C/c1n[nH]c2c1CCCCC2Cc1cccc(F)c1)c1ccccc1 (single isomer, unassigned) [Cpd 232, (2E)-2-[(8R*)-8-(3-fluoro-benzyl)-1,4,5,6,7,8-hexahydro-cycloheptapyrazol-3-yl]-ethenesulfonic acid [(1S)-1-phenyl-ethyl]-amide]",,4.0 ± 0.59,5.6 ± 0.16,,
"C[C@H](NS(=O)(=O)/C=C/c1n[nH]c2c1CCCC/C2=C\c1ccc(Cl)cc1)c1ccccc1 [Cpd 237, (2E,8E)-2-[8-(4-chloro-benzylidene)-1,4,5,6,7,8-hexahydro-cycloheptapyrazol-3-yl]-ethenesulfonic acid [(1S)-1-phenyl-ethyl]-amide]",,4.7 ± 0.40,5.6 ± 0.76,3.8 ± 0.40,3.6 ± 0.53
